Laboratory results reported in patent US20080226624A1, “Combined treatment of cancer by urokinase inhibition and a cytostatic anti-cancer agent for enhancing the anti-metastatic effect” (priority 2007, published 2008).

How the values were obtained:
uPA = uPA (Homo sapiens, UniProt P00749); details: L-confirmation; cited from earlier work
plasmin = plasmin (Homo sapiens, UniProt P00747); details: L-confirmation; cited from earlier work
tumor cell invasion = details: cited from earlier work
BN472 rat mammary tumors = system: BN472 rat mammary tumors
Method: Small tumor cubes (2×2×2 mm) were prepared from a tumor grown in a donor rat and implanted orthotopically under the fat pad of the mammary gland.
The effects of treatments on body weight and tumor load were evaluated twice weekly. The final evaluation was done at the end of the therapy period after all rats had been sacrificed. Graphical evaluations of the endpoints considered, i.e., tumor size and weight, axillary lymph-node weights, the number of macroscopic lung foci, and the weights of the thymus, uterus, spleen and liver, are depicted in FIGS. 3, 3a, 3b, 3c, 3d and 3e.

[1] = irinotecan mono-therapy, both doses (2 and 6 mg/kg daily i.p.)

Chain of plasmin (P00747 581-810 limits assumed, species assumed): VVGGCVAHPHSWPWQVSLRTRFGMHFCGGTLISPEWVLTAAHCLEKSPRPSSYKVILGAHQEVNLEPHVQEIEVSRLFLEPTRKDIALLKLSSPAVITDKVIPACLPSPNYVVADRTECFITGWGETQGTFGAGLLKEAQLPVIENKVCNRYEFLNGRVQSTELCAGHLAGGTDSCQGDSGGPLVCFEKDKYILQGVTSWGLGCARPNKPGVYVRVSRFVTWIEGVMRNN
Chain of plasmin (P00747 97-580 partner limits assumed, species assumed): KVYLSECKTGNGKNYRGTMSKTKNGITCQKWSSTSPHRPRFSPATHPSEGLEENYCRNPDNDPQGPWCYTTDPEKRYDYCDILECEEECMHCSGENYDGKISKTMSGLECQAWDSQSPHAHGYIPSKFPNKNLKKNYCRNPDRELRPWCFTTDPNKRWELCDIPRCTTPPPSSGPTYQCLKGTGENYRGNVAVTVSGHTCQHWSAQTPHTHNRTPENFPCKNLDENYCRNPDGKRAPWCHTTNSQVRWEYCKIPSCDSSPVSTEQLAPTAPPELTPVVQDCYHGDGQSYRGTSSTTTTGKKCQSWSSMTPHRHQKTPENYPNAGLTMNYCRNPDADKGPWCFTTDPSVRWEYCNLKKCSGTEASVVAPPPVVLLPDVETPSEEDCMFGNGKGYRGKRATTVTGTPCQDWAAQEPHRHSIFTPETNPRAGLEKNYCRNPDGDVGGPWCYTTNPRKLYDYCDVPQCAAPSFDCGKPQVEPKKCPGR

| SMILES | Ki values, inhibition of uPA (uPA) | Ki values, inhibition of plasmin (plasmin) | tumor cell invasion in vitro (tumor cell invasion) | tolerability (daily observations during the treatment period) (BN472 rat mammary tumors; WX-671 0.3 mg/kg daily p.o., irinotecan 2 or 6 mg/kg daily i.p.) | axillary lymph-nodes weight (BN472 rat mammary tumors; [1]) | number of lung foci (BN472 rat mammary tumors; [1]) | tumor growth (BN472 rat mammary tumors; irinotecan mono-therapy, daily i.p.) |
| --- | --- | --- | --- | --- | --- | --- | --- |
| CCOC(=O)N1CCN(C(=O)[C@H](Cc2cccc(C(=N)N)c2)NS(=O)(=O)c2c(C(C)C)cc(C(C)C)cc2C(C)C)CC1 [WX-UK1, N[alpha]-(2,4,6-triisopropylphenylsulfonyl)-3-amidino-(L)-phenylalanine 4-ethoxycarbonylpiperazide] | low- or sub-micromoles range | low- or sub-micromoles range | suppress tumor cell invasion in vitro |  |  |  |  |
| CCc1c2c(nc3ccc(OC(=O)N4CCC(N5CCCCC5)CC4)cc13)-c1cc3c(c(=O)n1C2)COC(=O)[C@]3(O)CC [irinotecan] |  |  |  | generally well tolerated | significantly inhibited | significantly inhibited | inhibition of tumor growth |
